# Source: article PMC11079024, “Identification of a family of species-selective complex I inhibitors as potential anthelmintics” (Nature Communications, 2024)
# Where “and” joins values, the source holds several entries; their conditions need not be identical. Equal entries are not always repeated. Where two headings read alike, the source gives them in different places.
# Molecular target: C. elegans complex II (succinate dehydrogenase) (Caenorhabditis elegans, UniProt O62215+P41956+Q09545)
# Assay: In vitro complex II activity assay, C. elegans mitochondria
# Format: biochemical
# Details: for Percent in vitro activity, Complex II (single replicate Rep1-Rep4): individual biological replicates; for IC50: wild-type (N2) mitochondria
# How it was run: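 Mitochondria isolated from adult C. elegans were diluted to 0.2 mg/mL protein and assayed for complex II by the DCIP-coupled method. A600 was read every 30 s over 15 min, with initial linear slope expressed as percent of solvent control. Screening was at 100 μM (≥3 biological replicates), followed by dose-response.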
# [1] = 100 µM compound, relative to solvent control, mean (SEM), read-out: % Activity Complex II
# [2] = 100 μM of NPD compound, C. elegans mitochondria, 100 µM
# [3] = 100 μM of NPD compound, C. elegans mitochondria, mean of four biological replicates, read-out: Percent in vitro activity, Complex II (Mean)
# [4] = dose 0.0001 µM, individual replicates, wild-type C. elegans
# [5] = dose 0.0005 µM, individual replicates, wild-type C. elegans
# [6] = dose 0.001 µM, individual replicates, wild-type C. elegans
# [7] = dose 0.0025 µM, individual replicates, wild-type C. elegans
# [8] = dose 0.005 µM, individual replicates, wild-type C. elegans
# [9] = dose 0.013 µM, individual replicates, wild-type C. elegans
# [10] = dose 0.025 µM, individual replicates, wild-type C. elegans
# [11] = dose 0.063 µM, individual replicates, wild-type C. elegans
# [12] = dose 0.125 µM, individual replicates, wild-type C. elegans
# [13] = dose 0.313 µM, individual replicates, wild-type C. elegans
# [14] = dose 0.625 µM, individual replicates, wild-type C. elegans
# [15] = dose 1.5 µM, individual replicates, wild-type C. elegans
# [16] = dose 3 µM, individual replicates, wild-type C. elegans
# [17] = dose 15 µM, individual replicates, wild-type C. elegans
# [18] = dose 75 µM, individual replicates, wild-type C. elegans
# Sequence of C. elegans complex II (succinate dehydrogenase) (P41956 30-182): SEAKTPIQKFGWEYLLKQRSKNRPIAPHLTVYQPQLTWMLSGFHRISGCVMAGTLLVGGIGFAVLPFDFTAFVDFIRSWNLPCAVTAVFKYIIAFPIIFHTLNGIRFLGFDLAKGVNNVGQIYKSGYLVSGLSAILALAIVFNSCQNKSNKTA
# Sequence of C. elegans complex II (succinate dehydrogenase) (Q09545 22-298): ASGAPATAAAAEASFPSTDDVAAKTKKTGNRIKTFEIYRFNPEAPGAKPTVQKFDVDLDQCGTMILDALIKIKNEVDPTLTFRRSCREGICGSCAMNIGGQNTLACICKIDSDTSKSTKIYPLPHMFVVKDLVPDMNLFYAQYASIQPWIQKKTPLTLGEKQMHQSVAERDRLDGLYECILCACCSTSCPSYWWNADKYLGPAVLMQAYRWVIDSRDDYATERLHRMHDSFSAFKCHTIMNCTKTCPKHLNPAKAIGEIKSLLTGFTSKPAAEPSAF
# Sequence of C. elegans complex II (succinate dehydrogenase) (Q09508 32-646, further chain): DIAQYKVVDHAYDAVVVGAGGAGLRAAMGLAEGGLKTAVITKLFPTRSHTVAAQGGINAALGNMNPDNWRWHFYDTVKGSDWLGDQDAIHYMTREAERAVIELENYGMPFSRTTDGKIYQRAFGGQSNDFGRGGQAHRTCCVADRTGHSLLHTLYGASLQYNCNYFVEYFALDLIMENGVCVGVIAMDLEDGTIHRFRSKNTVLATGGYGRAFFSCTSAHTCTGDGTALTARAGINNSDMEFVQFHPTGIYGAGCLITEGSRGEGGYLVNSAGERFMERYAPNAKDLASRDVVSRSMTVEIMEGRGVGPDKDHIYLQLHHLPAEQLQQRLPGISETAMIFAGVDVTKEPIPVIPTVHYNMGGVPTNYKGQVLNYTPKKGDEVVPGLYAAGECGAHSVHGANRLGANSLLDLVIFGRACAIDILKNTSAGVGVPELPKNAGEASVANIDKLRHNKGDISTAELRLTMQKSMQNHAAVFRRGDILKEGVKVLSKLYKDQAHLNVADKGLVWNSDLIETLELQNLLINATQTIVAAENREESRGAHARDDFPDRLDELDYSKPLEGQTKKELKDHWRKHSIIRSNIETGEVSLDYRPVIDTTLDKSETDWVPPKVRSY
# Sequence of C. elegans complex II (succinate dehydrogenase) (O62215 31-145): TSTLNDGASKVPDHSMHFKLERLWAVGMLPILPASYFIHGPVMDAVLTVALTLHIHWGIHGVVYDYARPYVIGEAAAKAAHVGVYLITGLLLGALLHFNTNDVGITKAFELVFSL
smiles,measurement,setting,value
COc1cc2c(cc1OC)C(c1ccc(-c3ccc(Cl)c(Cl)c3)o1)=NCC2 [NPD3577],activity at 100 µM,[1],115%
same,"Percent in vitro activity, Complex II (single replicate Rep1-Rep4)",[2],133.014% and 126.621% and 103.513% and 97.309%
same,activity at 100 µM,[3],115%
COc1cc2c(cc1OC)C(/C=C/c1ccc(N(C)C)cc1)=NCC2 [NPD6303],activity at 100 µM,[1],101%
same,"Percent in vitro activity, Complex II (single replicate Rep1-Rep4)",[2],124.122% and 89.817% and 91.578% and 100.352%
same,activity at 100 µM,[3],101%
CC(C)Cc1ccc(C(C)c2nc3ccccc3n2C)cc1 (stereo not shown) [NPD8790],activity at 100 µM,[1],99.7%
same,"Percent in vitro activity, Complex II (single replicate Rep1-Rep4)",[2],81.090% and 92.425% and 103.697% and 121.642%
same,activity at 100 µM,[3],99.7%
COc1cc2c(cc1OC)C(C(C)c1ccc(CC(C)C)cc1)=NCC2 (stereo not shown) [NPD10504],activity at 100 µM,[1],106%
same,"Percent in vitro activity, Complex II (single replicate Rep1-Rep4)",[2],86.801% and 136.285% and 101.347% and 99.840%
same,activity at 100 µM,[3],106%
"C=C(C)[C@H]1Cc2c(ccc3c2O[C@@H]2COc4cc(OC)c(OC)cc4[C@@H]2C3=O)O1 [Rotenone, reference compound]",activity at 100 µM,[1],106%
same,activity at 100 µM,"100 μM inhibitor, in vitro activity relative to solvent control, N2 C. elegans mitochondria, Mean, read-out: CII Activity",106%
same,"Percent in vitro activity, Complex II (single replicate Rep1-Rep4)",[2],120.467% and 95.666% and 95.033% and 112.709%
same,activity at 100 µM,[3],106%
Cc1cc(O)c2c(c1)O[C@@]1(C)CC[C@H]3C(C)(C)CCC[C@]34CO[C@@H]2[C@H]41 [Siccanin],remaining activity at 0.0001 µM,"dose 0.0001 µM, Mean of replicates, wild-type C. elegans, read-out: percent (%) in vitro complex II activity relative to solvent control",103%
same,percent (%) in vitro complex II activity relative to solvent control,[4],101.370% and 113.242%
same,remaining activity at 0.0001 µM,"dose 0.0001 µM, individual replicates, wild-type C. elegans, read-out: percent (%) in vitro complex II activity relative to solvent control",95.2%
same,remaining activity at 0.0005 µM,"dose 0.0005 µM, Mean of replicates, wild-type C. elegans, read-out: percent (%) in vitro complex II activity relative to solvent control",104%
same,percent (%) in vitro complex II activity relative to solvent control,[5],86.897% and 113.059% and 111.964%
same,remaining activity at 0.001 µM,"dose 0.001 µM, Mean of replicates, wild-type C. elegans, read-out: percent (%) in vitro complex II activity relative to solvent control",84.8%
same,percent (%) in vitro complex II activity relative to solvent control,[6],69.310% and 87.306% and 97.900%
same,remaining activity at 0.0025 µM,"dose 0.0025 µM, Mean of replicates, wild-type C. elegans, read-out: percent (%) in vitro complex II activity relative to solvent control",76.6%
same,percent (%) in vitro complex II activity relative to solvent control,[7],54.828% and 79.635% and 95.343%
same,remaining activity at 0.005 µM,"dose 0.005 µM, Mean of replicates, wild-type C. elegans, read-out: percent (%) in vitro complex II activity relative to solvent control",64.8%
same,percent (%) in vitro complex II activity relative to solvent control,[8],62.831% and 72.146%
same,remaining activity at 0.005 µM,"dose 0.005 µM, individual replicates, wild-type C. elegans, read-out: percent (%) in vitro complex II activity relative to solvent control",59.3%
same,remaining activity at 0.013 µM,"dose 0.013 µM, Mean of replicates, wild-type C. elegans, read-out: percent (%) in vitro complex II activity relative to solvent control",42.5%
same,percent (%) in vitro complex II activity relative to solvent control,[9],45.480% and 44.018%
same,remaining activity at 0.013 µM,"dose 0.013 µM, individual replicates, wild-type C. elegans, read-out: percent (%) in vitro complex II activity relative to solvent control",37.9%
same,remaining activity at 0.025 µM,"dose 0.025 µM, Mean of replicates, wild-type C. elegans, read-out: percent (%) in vitro complex II activity relative to solvent control",27.5%
same,percent (%) in vitro complex II activity relative to solvent control,[10],28.128% and 27.763%
same,remaining activity at 0.025 µM,"dose 0.025 µM, individual replicates, wild-type C. elegans, read-out: percent (%) in vitro complex II activity relative to solvent control",26.6%
same,remaining activity at 0.063 µM,"dose 0.063 µM, Mean of replicates, wild-type C. elegans, read-out: percent (%) in vitro complex II activity relative to solvent control",13%
same,percent (%) in vitro complex II activity relative to solvent control,[11],17.717% and 11.872%
same,remaining activity at 0.063 µM,"dose 0.063 µM, individual replicates, wild-type C. elegans, read-out: percent (%) in vitro complex II activity relative to solvent control",9.48%
same,remaining activity at 0.125 µM,"dose 0.125 µM, Mean of replicates, wild-type C. elegans, read-out: percent (%) in vitro complex II activity relative to solvent control",9.4%
same,percent (%) in vitro complex II activity relative to solvent control,[12],1.897% and 15.890% and 10.411%
same,remaining activity at 0.313 µM,"dose 0.313 µM, Mean of replicates, wild-type C. elegans, read-out: percent (%) in vitro complex II activity relative to solvent control",6.54%
same,percent (%) in vitro complex II activity relative to solvent control,[13],4.655% and 12.968% and 2.009%
same,remaining activity at 0.625 µM,"dose 0.625 µM, Mean of replicates, wild-type C. elegans, read-out: percent (%) in vitro complex II activity relative to solvent control",3.28%
same,percent (%) in vitro complex II activity relative to solvent control,[14],3.621% and 6.210%
same,remaining activity at 1.5 µM,"dose 1.5 µM, Mean of replicates, wild-type C. elegans, read-out: percent (%) in vitro complex II activity relative to solvent control",9.39%
same,percent (%) in vitro complex II activity relative to solvent control,[15],5.345% and 10.046% and 12.785%
same,remaining activity at 3 µM,"dose 3 µM, Mean of replicates, wild-type C. elegans, read-out: percent (%) in vitro complex II activity relative to solvent control",3.77%
same,percent (%) in vitro complex II activity relative to solvent control,[16],3.448% and 7.854%
same,remaining activity at 15 µM,"dose 15 µM, Mean of replicates, wild-type C. elegans, read-out: percent (%) in vitro complex II activity relative to solvent control",1.28%
same,percent (%) in vitro complex II activity relative to solvent control,[17],1.461% and 2.374%
same,remaining activity at 37.5 µM,"dose 37.5 µM, Mean of replicates, wild-type C. elegans, read-out: percent (%) in vitro complex II activity relative to solvent control",0%
same,remaining activity at 37.5 µM,"dose 37.5 µM, individual replicates, wild-type C. elegans, read-out: percent (%) in vitro complex II activity relative to solvent control",0%
same,remaining activity at 75 µM,"dose 75 µM, Mean of replicates, wild-type C. elegans, read-out: percent (%) in vitro complex II activity relative to solvent control",1.83%
same,percent (%) in vitro complex II activity relative to solvent control,[18],5.480%
same,IC50,,10.7 nM
O=C(NCCc1ccc(Cl)cc1)c1ccccc1C(F)(F)F [Wact-11],% Activity Complex II,"100 µM compound, relative to solvent control, mean (SEM)",24.43 (0.62) %
same,CII Activity,"100 μM inhibitor, in vitro activity relative to solvent control, N2 C. elegans mitochondria, Mean",24.430%
same,"Percent in vitro activity, Complex II (single replicate Rep1-Rep4)","100 μM of NPD compound, C. elegans mitochondria",25.363% and 20.777% and 26.220%
same,"Percent in vitro activity, Complex II (Mean)","100 μM of NPD compound, C. elegans mitochondria, mean of four biological replicates",24.431%
same,percent (%) in vitro complex II activity relative to solvent control,"dose 0.0001 µM, Mean of replicates, wild-type C. elegans",94.900%
same,percent (%) in vitro complex II activity relative to solvent control,[4],104.455% and 86.022% and 94.224%
same,percent (%) in vitro complex II activity relative to solvent control,"dose 0.0005 µM, Mean of replicates, wild-type C. elegans",92.990%
same,percent (%) in vitro complex II activity relative to solvent control,[5],105.223% and 78.802% and 94.946%
same,percent (%) in vitro complex II activity relative to solvent control,"dose 0.001 µM, Mean of replicates, wild-type C. elegans",95.541%
same,percent (%) in vitro complex II activity relative to solvent control,[6],97.389% and 94.470% and 94.765%
same,percent (%) in vitro complex II activity relative to solvent control,"dose 0.0025 µM, Mean of replicates, wild-type C. elegans",86.830%
same,percent (%) in vitro complex II activity relative to solvent control,[7],88.172% and 83.871% and 88.448%
same,percent (%) in vitro complex II activity relative to solvent control,"dose 0.005 µM, Mean of replicates, wild-type C. elegans",71.382%
same,percent (%) in vitro complex II activity relative to solvent control,[8],74.194% and 66.667% and 73.285%
same,percent (%) in vitro complex II activity relative to solvent control,"dose 0.013 µM, Mean of replicates, wild-type C. elegans",42.140%
same,percent (%) in vitro complex II activity relative to solvent control,[9],41.167% and 38.863% and 46.390%
same,percent (%) in vitro complex II activity relative to solvent control,"dose 0.025 µM, Mean of replicates, wild-type C. elegans",24.327%
same,percent (%) in vitro complex II activity relative to solvent control,[10],28.111% and 21.045% and 23.827%
same,percent (%) in vitro complex II activity relative to solvent control,"dose 0.063 µM, Mean of replicates, wild-type C. elegans",7.305%
same,percent (%) in vitro complex II activity relative to solvent control,[11],6.298% and 1.536% and 14.079%
same,percent (%) in vitro complex II activity relative to solvent control,"dose 0.125 µM, Mean of replicates, wild-type C. elegans",1.918%
same,percent (%) in vitro complex II activity relative to solvent control,[12],3.226% and 0.000% and 2.527%
same,percent (%) in vitro complex II activity relative to solvent control,"dose 0.313 µM, Mean of replicates, wild-type C. elegans",0.000%
same,percent (%) in vitro complex II activity relative to solvent control,[13],0.000%
same,percent (%) in vitro complex II activity relative to solvent control,"dose 0.625 µM, Mean of replicates, wild-type C. elegans",2.509%
same,percent (%) in vitro complex II activity relative to solvent control,[14],0.000% and 7.527%
same,percent (%) in vitro complex II activity relative to solvent control,"dose 1.5 µM, Mean of replicates, wild-type C. elegans",0.000%
same,percent (%) in vitro complex II activity relative to solvent control,[15],0.000%
same,percent (%) in vitro complex II activity relative to solvent control,"dose 3 µM, Mean of replicates, wild-type C. elegans",0.717%
same,percent (%) in vitro complex II activity relative to solvent control,[16],0.000% and 2.151%
same,percent (%) in vitro complex II activity relative to solvent control,"dose 15 µM, Mean of replicates, wild-type C. elegans",2.650%
same,percent (%) in vitro complex II activity relative to solvent control,[17],0.000% and 6.144% and 1.805%
same,percent (%) in vitro complex II activity relative to solvent control,"dose 37.5 µM, Mean of replicates, wild-type C. elegans",1.029%
same,percent (%) in vitro complex II activity relative to solvent control,"dose 37.5 µM, individual replicates, wild-type C. elegans",0.000% and 0.922% and 2.166%
same,percent (%) in vitro complex II activity relative to solvent control,"dose 75 µM, Mean of replicates, wild-type C. elegans",0.000%
same,percent (%) in vitro complex II activity relative to solvent control,[18],0.000%
same,IC50,,7.1 nM
